Reference: patent publication US20260297081A1, “COMPOUNDS AND METHODS OF TREATING CANCERS” (Cullgen Inc., priority 2023, published 2026)

How the values were obtained:
MCF7 cells = assay: Anti-proliferation (viability) of MCF7 cells (Table 7, FIG. 2B); type: cell-based; conditions: Homo sapiens, MCF7, MCF7 cells, 3-6 days, 10-point serial dilution; read-out: GI IC50 in MCF-7
Calu-1 cells = assay: Anti-proliferation (viability) of NSCLC Calu-1 cells, 3 days (Table 7, FIG. 2B); type: cell-based; conditions: Homo sapiens, 72 h; Calu-1 cells, 3 days, 10-point serial dilution; read-out: GI IC50 in Calu-1
In short: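 Cells were exposed to heterobifunctional compounds across a 10-point serial dilution, for 3 days with Calu-1 and 6 days with T47D. A negative control was included that keeps the DDB1 ligand and linker but carries a modified warhead that impairs CDK4 binding.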

Compound	IC50 (MCF7 cells) [nM]	IC50 (Calu-1 cells) [nM]
CC(=O)c1c(C)c2cnc(Nc3ccc(N4CC5(CN(CC(=O)NCC6CC(Nc7nc(NC(C)C)ccc7C(=O)Nc7ccc(N(C)C)nn7)C6)C5)C4)cn3)nc2n(C2CCCC2)c1=O (stereo not drawn) [CPD-468, 2-((3-((2-(6-(6-((6-acetyl-8-cyclopentyl-5-methyl-7-oxo-7,8-dihydropyrido[2,3-d]pyrimidin-2-yl)amino)pyridin-3-yl)-2,6-diazaspiro[3.3]heptan-2-yl)acetamido)methyl)cyclobutyl)amino)-N-(6-(dimethylamino)pyridazin-3-yl)-6-(isopropylamino)nicotinamide]	> 100	10 to 50
CC(=O)c1c(C)c2cnc(Nc3ccc(N4CCN(C5CCN(C(=O)NC6CC7(C6)CC(Nc6nc(NC(C)C)ccc6C(=O)Nc6ccc(N(C)C)nn6)C7)C5)CC4)cn3)nc2n(C2CCCC2)c1=O (stereo not drawn) [CPD-470, 2-((6-(3-(4-(6-((6-acetyl-8-cyclopentyl-5-methyl-7-oxo-7,8-dihydropyrido[2,3-d]pyrimidin-2-yl)amino)pyridin-3-yl)piperazin-1-yl)pyrrolidine-1-carboxamido)spiro[3.3]heptan-2-yl)amino)-N-(6-(dimethylamino)pyridazin-3-yl)-6-(isopropylamino)nicotinamide]	> 100	≤ 10
[2H]C([2H])([2H])Nc1ccc(C(=O)Nc2ccc(N(C)C)nn2)c(NC2CC(C(=O)N3CCC(N4CCN(c5ccc(Nc6ncc7c(C)c(C(C)=O)c(=O)n(C8CCCC8)c7n6)nc5)CC4)C3)C2)n1 (stereo not drawn) [CPD-471, 2-((3-(3-(4-(6-((6-acetyl-8-cyclopentyl-5-methyl-7-oxo-7,8-dihydropyrido[2,3-d]pyrimidin-2-yl)amino)pyridin-3-yl)piperazin-1-yl)pyrrolidine-1-carbonyl)cyclobutyl)amino)-N-(6-(dimethylamino)pyridazin-3-yl)-6-((methyl-d3)amino)nicotinamide]	< 50	≤ 10
[2H]C([2H])([2H])Nc1ccc(C(=O)Nc2ccc(N(C)C)nn2)c(NC2CCN(C(=O)CN3CCN(Cc4ccc(Nc5ncc6c(C)c(C(C)=O)c(=O)n(C7CCCC7)c6n5)nc4)CC3)CC2)n1 [CPD-474, 2-((1-(2-(4-((6-((6-acetyl-8-cyclopentyl-5-methyl-7-oxo-7,8-dihydropyrido[2,3-d]pyrimidin-2-yl)amino)pyridin-3-yl)methyl)piperazin-1-yl)acetyl)piperidin-4-yl)amino)-N-(6-(dimethylamino)pyridazin-3-yl)-6-((methyl-d3)amino)nicotinamide]	50 to 100	≤ 10
CC(=O)c1c(C)c2cnc(Nc3ccc(CN4CCN(CC(=O)NC5CC(Nc6nc(NC(C)C)ccc6C(=O)Nc6ccc(N(C)C)nn6)C5)CC4)cn3)nc2n(C2CCCC2)c1=O (stereo not drawn) [CPD-475, 2-((3-(2-(4-((6-((6-acetyl-8-cyclopentyl-5-methyl-7-oxo-7,8-dihydropyrido[2,3-d]pyrimidin-2-yl)amino)pyridin-3-yl)methyl)piperazin-1-yl)acetamido)cyclobutyl)amino)-N-(6-(dimethylamino)pyridazin-3-yl)-6-(isopropylamino)nicotinamide]	> 100	≤ 10
[2H]C([2H])([2H])Nc1ccc(C(=O)Nc2ccc(N(C)C)nn2)c(N[C@H]2CC[C@H](C(=O)N3CCC(N4CCN(c5ccc(Nc6ncc7c(C)c(C(C)=O)c(=O)n(C8CCCC8)c7n6)nc5)CC4)C3)CC2)n1 (stereo partly drawn) [CPD-476, 2-((trans-4-(3-(4-(6-((6-acetyl-8-cyclopentyl-5-methyl-7-oxo-7,8-dihydropyrido[2,3-d]pyrimidin-2-yl)amino)pyridin-3-yl)piperazin-1-yl)pyrrolidine-1-carbonyl)cyclohexyl)amino)-N-(6-(dimethylamino)pyridazin-3-yl)-6-((methyl-d3)amino)nicotinamide]	< 50	≤ 10
[2H]C([2H])([2H])Nc1ccc(C(=O)Nc2cc(C)n(C)n2)c(N[C@H]2CC[C@H](C(=O)N3CCC(N4CCN(c5ccc(Nc6ncc7c(C)c(C(C)=O)c(=O)n(C8CCCC8)c7n6)nc5)CC4)C3)CC2)n1 (stereo partly drawn) [CPD-477, 2-((4-(3-(4-(6-((6-acetyl-8-cyclopentyl-5-methyl-7-oxo-7,8-dihydropyrido[2,3-d]pyrimidin-2-yl)amino)pyridin-3-yl)piperazin-1-yl)pyrrolidine-1-carbonyl)cyclohexyl)amino)-N-(1,5-dimethyl-1H-pyrazol-3-yl)-6-((methyl-d3)amino)nicotinamide]	> 100	10 to 50
[2H]C([2H])([2H])Nc1ccc(C(=O)Nc2ccc(N(C)C)nn2)c(NC2CCN(C(=O)N3CCC(N4CCN(c5ccc(Nc6ncc7c(C)c(C(C)=O)c(=O)n(C8CCCC8)c7n6)nc5)CC4)C3)CC2)n1 (stereo not drawn) [CPD-482, 2-((1-(3-(4-(6-((6-acetyl-8-cyclopentyl-5-methyl-7-oxo-7,8-dihydropyrido[2,3-d]pyrimidin-2-yl)amino)pyridin-3-yl)piperazin-1-yl)pyrrolidine-1-carbonyl)piperidin-4-yl)amino)-N-(6-(dimethylamino)pyridazin-3-yl)-6-((methyl-d3)amino)nicotinamide]	< 50	≤ 10
CC(=O)c1c(C)c2cnc(Nc3ccc(CN4CCC(NC(=O)C5CC6(CC(Nc7nc(NC(C)C)ccc7C(=O)Nc7ccc(N(C)C)nn7)C6)C5)CC4)cn3)nc2n(C2CCCC2)c1=O (stereo not drawn) [CPD-486, 2-((6-((1-((6-((6-acetyl-8-cyclopentyl-5-methyl-7-oxo-7,8-dihydropyrido[2,3-d]pyrimidin-2-yl)amino)pyridin-3-yl)methyl)piperidin-4-yl)carbamoyl)spiro[3.3]heptan-2-yl)amino)-N-(6-(dimethylamino)pyridazin-3-yl)-6-(isopropylamino)nicotinamide]	< 50	≤ 10
[2H]C([2H])([2H])Nc1ccc(C(=O)Nc2ccc(N(C)C)nn2)c(NC2CC3(C2)CN(C(=O)CN2CCN(C(C)c4ccc(Nc5ncc6c(C)c(C(C)=O)c(=O)n(C7CCCC7)c6n5)nc4)CC2)C3)n1 (stereo not drawn) [CPD-488, 2-((2-(2-(4-(1-(6-((6-acetyl-8-cyclopentyl-5-methyl-7-oxo-7,8-dihydropyrido[2,3-d]pyrimidin-2-yl)amino)pyridin-3-yl)ethyl)piperazin-1-yl)acetyl)-2-azaspiro[3.3]heptan-6-yl)amino)-N-(6-(dimethylamino)pyridazin-3-yl)-6-((methyl-d3)amino)nicotinamide]	< 50	≤ 10
CC(=O)c1c(C)c2cnc(Nc3ccc(N4CCN(C(C)CC(=O)NC56CC(Nc7nc(NC(C)C)ccc7C(=O)Nc7ccc(N(C)C)nn7)(C5)C6)CC4)cn3)nc2n(C2CCCC2)c1=O (stereo not drawn) [CPD-504, 2-((3-(3-(4-(6-((6-acetyl-8-cyclopentyl-5-methyl-7-oxo-7,8-dihydropyrido[2,3-d]pyrimidin-2-yl)amino)pyridin-3-yl)piperazin-1-yl)butanamido)bicyclo[1.1.1]pentan-1-yl)amino)-N-(6-(dimethylamino)pyridazin-3-yl)-6-(isopropylamino)nicotinamide]	< 50	≤ 10
CCc1ccc(C(=O)Nc2ccc(N(C)C)nn2)c(N[C@H]2CC[C@H](C(=O)N3CCC(N4CCN(c5ccc(Nc6ncc7c(C)c(C(C)=O)c(=O)n(C8CCCC8)c7n6)nc5)CC4)C3)CC2)c1 (stereo partly drawn) [CPD-526, 2-((trans-4-(3-(4-(6-((6-acetyl-8-cyclopentyl-5-methyl-7-oxo-7,8-dihydropyrido[2,3-d]pyrimidin-2-yl)amino)pyridin-3-yl)piperazin-1-yl)pyrrolidine-1-carbonyl)cyclohexyl)amino)-N-(6-(dimethylamino)pyridazin-3-yl)-4-ethylbenzamide]	< 50	≤ 10
